Series [1] relates to DENV-2 16681 strain. Briefly: microbe, parasite or virus in culture. The class given is cell-based, Dengue virus. The conditions noted are these: for EC50: DENV-2 16681 eGFP, Vero cells, MOI 0.5, 3 days; for SI: SI=CC50/EC50, DENV-2 antiviral assay.
A short description of series [2]: in vitro. The following applies: African green monkey.
[3] abbreviates: Dengue virus, DENV2, Vero, 72 h.

Each structure is given as a SMILES string.

These results are taken from US11407715B2, “Substituted indoline derivatives as dengue viral replication inhibitors” (JANSSEN PHARMACEUTICALS, INC., priority 2017, dated 2022).

Regarding `COc1cc(NC(C(=O)N2CCc3ccc(OC(F)(F)F)cc32)c2ccc(Cl)cc2)cc(OCCC2(C(=O)O)CC2)c1` (racemic) [Compound 3, 1-(2-(3-((1-(4-chlorophenyl)-2-oxo-2-(6-(trifluoromethoxy)indolin-1-yl)ethyl)amino)-5-methoxyphenoxy)ethyl)cyclopropane-1-carboxylic acid], in series [1] (setting [3]), the EC50 was found to be 0.0005 µM. The SI in series [1] amounted to 17700. Besides, the CC50 in series [2] is 10 µM.

In series [1] (setting [3]), `COc1cc(NC(C(=O)N2CCc3ccc(OC(F)(F)F)cc32)c2ccc(Cl)cc2)cc(OCC(C)CC(=O)O)c1` (racemic) [Compound 4, 4-(3-((1-(4-chlorophenyl)-2-oxo-2-(6-(trifluoromethoxy)indolin-1-yl)ethyl)amino)-5-methoxyphenoxy)-3-methylbutanoic acid] registered an EC50 of 0.00014 µM. The compound further gave an SI in series [1] of 73900. Further, the CC50 in series [2] is 10 µM.

As for `COc1cc(NC(C(=O)N2CCc3ccc(OC(F)(F)F)cc32)c2ccc(Cl)cc2)cc(OCC2(CC(=O)O)CC2)c1` (racemic) [Compound 5, 2-(1-((3-((1-(4-chlorophenyl)-2-oxo-2-(6-(trifluoromethoxy)indolin-1-yl)ethyl)amino)-5-methoxyphenoxy)methyl)cyclopropyl)acetic acid], the EC50 in series [1] (setting [3]) was determined as 0.00092 µM. The same compound gave an SI in series [1] of 11300. This compound also displayed a CC50 in series [2] of 9.7 µM.

Compound `COc1cc(NC(C(=O)N2CCc3ccc(OC(F)(F)F)cc32)c2ccc(Cl)cc2)cc(OCC23CC(C(=O)O)(C2)C3)c1` (racemic) [Compound 9, 3-((3-((1-(4-chlorophenyl)-2-oxo-2-(6-(trifluoro-methoxy)indolin-1-yl)ethyl)amino)-5-methoxyphenoxy)methyl)bicyclo[1.1.1]pentane-1-carboxylic acid] gave an EC50 in series [1] (setting [3]) of 0.0007 µM. The SI in series [1] came to 14700. This compound showed a CC50 in series [2] of 9.8 µM.

Compound `COc1cc(NC(C(=O)N2CCc3ccc(OC(F)(F)F)cc32)c2ccc(Cl)cc2)cc(OCCC(=O)O)c1` (racemic) [Compound 12, 3-(3-((1-(4-chlorophenyl)-2-oxo-2-(6-(trifluoromethoxy)indolin-1-yl)ethyl)amino)-5-methoxyphenoxy)propanoic acid] yielded an EC50 in series [1] (setting [3]) of 0.0011 µM. In series [1], this compound came in with an SI of 9440. Besides, in series [2], the CC50 was determined as 11 µM.

`COc1cc(NC(C(=O)N2CCc3ccc(OC(F)(F)F)cc32)c2ccc(Cl)cc2)cc(OCCCCC(=O)O)c1` (racemic) [Compound 13, 5-(3-((1-(4-chlorophenyl)-2-oxo-2-(6-(trifluoromethoxy)-indolin-1-yl)ethyl)amino)-5-methoxyphenoxy)pentanoic acid] came in with a 50% effective concentration (EC50) in series [1] (setting [3]) of 0.00025 µM. Also, in series [1], the SI is 38100. This compound registered a CC50 in series [2] of 12 µM.

In series [1] (setting [3]), `COc1cc(CCCCC(=O)O)cc(NC(C(=O)N2CCc3ccc(OC(F)(F)F)cc32)c2ccc(Cl)cc2)c1` (racemic) [Compound 14, 5-(3-((1-(4-chlorophenyl)-2-oxo-2-(6-(trifluoromethoxy)indolin-1-yl)ethyl)amino)-5-methoxyphenyl)pentanoic acid] showed an EC50 of 0.00023 µM. The SI in series [1] is given as 50200. This compound also gave a CC50 in series [2] of 9.6 µM.

`COc1cc(CCCC(=O)O)cc(NC(C(=O)N2CCc3ccc(OC(F)(F)F)cc32)c2ccc(Cl)cc2)c1` (racemic) [Compound 15, 4-(3-((1-(4-chlorophenyl)-2-oxo-2-(6-(trifluoromethoxy)indolin-1-yl)ethyl)amino)-5-methoxyphenyl)butanoic acid] yielded an EC50 in series [1] (setting [3]) of 0.00042 µM. In addition, in series [1], the SI turned out to be 25500. In addition, the CC50 in series [2] came out at 8.3 µM.

For the compound `COc1cc(COCCC(=O)O)cc(NC(C(=O)N2CCc3ccc(OC(F)(F)F)cc32)c2ccc(Cl)cc2)c1` (racemic) [Compound 16, 3-((3-((1-(4-chlorophenyl)-2-oxo-2-(6-(trifluoromethoxy)indolin-1-yl)ethyl)amino)-5-methoxybenzyl)oxy)propanoic acid], in series [1] (setting [3]), the EC50 turned out to be 0.00033 µM. For the same compound, in series [1], the SI came out at 56100. For the same compound, the CC50 in series [2] was 16 µM.

On to `COc1cc(NC(C(=O)N2CCc3ccc(OC(F)(F)F)cc32)c2ccc(Cl)cc2OC)cc(OCCC(C)C(=O)O)c1` (racemic) [Compound 17, 4-(3-((1-(4-chloro-2-methoxyphenyl)-2-oxo-2-(6-(trifluoromethoxy)indolin-1-yl)ethyl)amino)-5-methoxyphenoxy)-2-methylbutanoic acid], for which the midpoint of the response in series [1] (setting [3]), the EC50, lay at 0.00018 µM. This compound displayed an SI in series [1] of 100043. Moreover, the CC50 in series [2] was determined as 13 µM.

Regarding `COc1cc(NC(C(=O)N2CCc3ccc(OC(F)(F)F)cc32)c2ccc(Cl)cc2OC)cc(OCCC(C)(C)C(=O)O)c1` (racemic) [Compound 18, 4-(3-((1-(4-chloro-2-methoxyphenyl)-2-oxo-2-(6-(trifluoromethoxy)indolin-1-yl)ethyl)amino)-5-methoxyphenoxy)-2,2-dimethylbutanoic acid], the EC50 in series [1] (setting [3]) amounted to 0.00049 µM. Also, in series [1], the SI is 26100. The same compound showed a CC50 in series [2] of 11 µM.

In series [1] (setting [3]), `COc1cc(NC(C(=O)N2CCc3cc(OC)c(C(F)(F)F)cc32)c2ccc(Cl)cc2)cc(OCCC(C)(C)C(=O)O)c1` (racemic) [Compound 21, 4-(3-((1-(4-chlorophenyl)-2-(5-methoxy-6-(trifluoromethyl)indolin-1-yl)-2-oxoethyl)amino)-5-methoxyphenoxy)-2,2-dimethylbutanoic acid] returned an EC50 of 0.0011 µM. This compound yielded an SI in series [1] of 11000. Also, the CC50 in series [2] turned out to be 15 µM.

In series [1], `COc1cc(NC(C(=O)N2CCc3ccc(OC(F)(F)F)cc32)c2ccc(Cl)cc2)cc(OCC(C)CC(=O)O)c1` (single isomer, unassigned) [Compound 4A] showed an EC50 of 0.0029 µM and an SI of 3090. The compound also registered a CC50 in series [2] of 9 µM.

Take `COc1cc(NC(C(=O)N2CCc3ccc(OC(F)(F)F)cc32)c2ccc(Cl)cc2)cc(OC23CC(C(=O)O)(C2)C3)c1` (single isomer, unassigned) [Compound 9A]: in series [1], the EC50 was determined as 0.09 µM and the SI is 125. In series [2], this compound came in with a CC50 of 11 µM.

As to `COc1cc(NC(C(=O)N2CCc3ccc(OC(F)(F)F)cc32)c2ccc(Cl)cc2)cc(OCCC(=O)O)c1` (single isomer, unassigned) [Compound 12A], in series [1], the EC50 was 0.038 µM and the SI was found to be 267. For the same compound, the CC50 in series [2] stood at 10 µM.

Take `COc1cc(NC(C(=O)N2CCc3ccc(OC(F)(F)F)cc32)c2ccc(Cl)cc2)cc(OCCCCC(=O)O)c1` (single isomer, unassigned) [Compound 13A]: in series [1], a half-maximal effect (EC50) was put at 0.0014 µM and the SI amounted to 5720. The CC50 in series [2] was 9.1 µM.

For the compound `COc1cc(CCCC(=O)O)cc(NC(C(=O)N2CCc3ccc(OC(F)(F)F)cc32)c2ccc(Cl)cc2)c1` (single isomer, unassigned) [Compound 15A], in series [1], the EC50 stood at 0.049 µM and the SI amounted to 171. Besides, in series [2], the CC50 is 8.4 µM.

On to `COc1cc(NC(C(=O)N2CCc3ccc(OC(F)(F)F)cc32)c2ccc(Cl)cc2OC)cc(OCCC(C)C(=O)O)c1` (single isomer, unassigned) [Compound 17A], for which, in series [1], it took 0.076 µM to reach a half-maximal effect (EC50) and the SI is 147. The compound further returned a CC50 in series [2] of 11 µM.

As usually defined, the EC50 is the midpoint of the concentration-response curve.
